In publication PMC11112591 (ACS Omega, 2024):

Tests used:
[1] = Parallel artificial membrane permeability assay; format: in vitro ADME; details: PAMPA, PAMPA effective permeability, donor pH 6.5, acceptor pH 7.5, 5 h, 37 °C
[2] = Mouse liver microsome intrinsic clearance; format: in vitro ADME; details: liver microsomes, pH 7.4
CYP51 = CYP51 (Trypanosoma cruzi, UniProt Q7Z1V1); assay: CYP51 inhibition of initial hits; format: biochemical; details: initial hit data, Figure 1
Chain of CYP51 (Q7Z1V1 whole entry): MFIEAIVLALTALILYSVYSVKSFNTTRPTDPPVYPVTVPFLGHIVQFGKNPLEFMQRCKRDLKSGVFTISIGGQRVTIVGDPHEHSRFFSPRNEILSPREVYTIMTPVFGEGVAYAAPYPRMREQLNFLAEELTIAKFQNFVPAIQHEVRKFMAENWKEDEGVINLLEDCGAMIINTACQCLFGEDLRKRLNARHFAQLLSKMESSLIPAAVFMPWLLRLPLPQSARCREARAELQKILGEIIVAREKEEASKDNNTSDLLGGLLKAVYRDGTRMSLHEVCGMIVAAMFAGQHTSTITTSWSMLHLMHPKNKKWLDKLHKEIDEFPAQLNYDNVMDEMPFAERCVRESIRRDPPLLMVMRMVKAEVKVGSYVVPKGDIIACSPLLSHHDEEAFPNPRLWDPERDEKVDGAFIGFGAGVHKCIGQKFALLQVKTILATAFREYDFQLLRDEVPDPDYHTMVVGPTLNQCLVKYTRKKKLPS

| Structure (SMILES) | Papp at 5 h, 1 µM [1] [×10⁻⁶ cm/s] | microsomal CLint at 0.5 µM [2] [µL/min/mg] | CYP51 IC50 (CYP51) |
| --- | --- | --- | --- |
| Cc1cc(C)c(C#N)c(SCC(=O)c2ccccc2)n1 [Compound 2, c1c(C)c(C#N)c(SCC(=O)c2ccccc2)nc1C] | 20.4 | 1560 |  |
| Cc1cc(C)c(C#N)c(SCC(=O)c2ccc(F)cc2F)n1 [Compound 7, O=C(CSc1nc(C)cc(C)c1C#N)c2ccc(F)cc2F] | 7.5 | 4040 |  |
| Cc1cc(C)c(C#N)c(SCC(=O)N2CCOCC2)n1 [Compound 16, Cc1c(C#N)c(SCC(=O)N2CCOCC2)nc(C)c1] | 11.7 | 73.9 |  |
| Cc1cc(C)c(C#N)c(SCC(=O)c2ccc(F)cc2)n1 [Compound 6, S(c1nc(C)cc(C)c1C#N)CC(=O)c2ccc(F)cc2] | 8 |  |  |
| COc1ccccc1C(=O)CSc1nc(C)cc(C)c1C#N [Compound 10, S(c1nc(C)cc(C)c1C#N)CC(=O)c2ccccc2OC] | 9.3 | 9670 |  |
| Cc1cc(C)c(C#N)c(SCC(=O)c2ccc(Cl)cc2Cl)n1 [Compound 9, Clc1cc(ccc1C(CSc2c(C#N)c(C)cc(C)n2)=O)Cl] | 1.7 | 35300 |  |
| Cc1cc(C)c(C#N)c(SCC(=O)c2cccs2)n1 [Compound 1, c1(SCC(=O)c2cccs2)nc(C)cc(C)c1C#N] | 25.4 | 3480 | no clear CYP51 inhibition |
| CCc1ccc(C(=O)CSc2nc(C)cc(C)c2C#N)cc1 [Compound 5, S(c1nc(C)cc(C)c1C#N)CC(=O)c2ccc(CC)cc2] | 1 | 8860 |  |
| Cc1cc(C)c(C(N)=O)c(SCC(=O)c2ccc(F)cc2)n1 [Compound 38, O=C(CSc1nc(C)cc(C)c1C(=O)N)c2ccc(F)cc2] | 17.5 | 892 |  |
| Cc1cc(C)c(C#N)c(SCC(=O)c2ccsc2)n1 [Compound 3, S(c1nc(C)cc(C)c1C#N)CC(=O)c2cscc2] | 23.3 | 1320 |  |
| Cc1cc(C)c(C#N)c(OCC(=O)c2ccccc2)n1 [Compound 23, O(c1nc(C)cc(C)c1C#N)CC(=O)c2ccccc2] | 31.1 | 3240 |  |
| Cc1cc(C)c(C#N)c(SCC(=O)c2ccc(Cl)cc2)n1 [Compound 8, Cc1c(C#N)c(SCC(=O)c2ccc(Cl)cc2)nc(C)c1] | 4.3 | 8880 |  |
| COc1ccc(C(=O)CSc2nc(C)cc(C)c2C#N)cc1 [Compound 11, S(c1nc(C)cc(C)c1C#N)CC(=O)c2ccc(OC)cc2] | 24.6 | 4300 |  |
